We go through one compound from patent publication US20230414605A1, “Method of Treating Cancer Using FABP5 Inhibitors” (Aurigene Oncology Limited, priority 2020, published 2023).

Holding throughout (type): cell-based
The test system of one experiment is CUTLL-1. Kind of experiment: Anti proliferative activity in haematological cancer cell lines (CellTiter Glo), CUTLL-1. Here is the method:
(§1) After 24 hours, selected compound of the present invention was added to cells from 10 mM stocks made in DMSO (Sigma Cat no. D2650). CTG reading was taken on the day of compound addition which was labelled as Day 0 reading. Each concentration of compound was tested in triplicate with DMSO concentration not exceeding a final percentage of 0.1 in the cells. After 3 days (72 hours) of incubation assay terminated using 100 μl of CellTiter Glo® reagent (Promega, Cat. no G7572). CellTiter Glo® Luminescent reagent determines the number of viable cells based on quantitation of ATP present which is an indicator of cell number and metabolically activity. Luminescence readings were taken in Victor-3 instrument. The data was analysed using graph pad prism software. Positive control (100% survival)=Cells in complete media with […]; Negative control/blank (0% survival)=Media alone containing 0.1% DMSO.

In the next experiment the test system is HBL-1. Kind of experiment: Anti proliferative activity in haematological cancer cell lines (CellTiter Glo), HBL-1. To be noted: HBL1, HBL-1, ABC-DLBCL, 72 hours incubation. How it is done: as §1
In another experiment the test system is OCI-LY3 cells. Kind of experiment: Anti proliferative activity in haematological cancer cell lines (CellTiter Glo), OCI-LY3. How it is done:
as §1

For the next experiment, the system named is OCI-LY10. Kind of experiment: Anti proliferative activity in haematological cancer cell lines (CellTiter Glo), OCI-LY10. To be noted: Homo sapiens, OCI-LY10, ABC-DLBCL, 72 hours incubation. Here is the method:
as §1

The next experiment has as its system DOHH-2. In words: Anti proliferative activity in haematological cancer cell lines (CellTiter Glo), DOHH-2. Particulars: Homo sapiens, DOHH-2, Follicular lymphoma, 72 hours incubation. How it is done:
as §1

The subject of another experiment is CCRF-CEM. Kind of experiment: Anti proliferative activity in haematological cancer cell lines (CellTiter Glo), CCRF-CEM. Here is the method: as §1
A further experiment deals with TMD8* (wt btk). In words: Anti proliferative activity in haematological cancer cell lines (CellTiter Glo), TMD8. To be noted: Homo sapiens, ABC-DLBCL, 72 hours incubation. Here is the method:
as §1

The next experiment concerns Pfeiffer. Kind of experiment: Anti proliferative activity in haematological cancer cell lines (CellTiter Glo), Pfeiffer. Particulars: Homo sapiens, GCB-DLBCL, 72 hours incubation. Here is the method: as §1
Another experiment relates to H929. In words: Anti proliferative activity in haematological cancer cell lines (CellTiter Glo), H929. Here is the method: as §1

As for `C=CC(=O)N1CCN(C(=O)NC2(C#Cc3ccc(Cl)c(Cl)c3)CC2)CC1` [Cpd 23], the IC50 was 50 nM in the experiment on CUTLL-1 (CUTLL1, CUTLL-1, T-cell acute lymphoblastic leukemia, 72 hours incubation, CellTiter Glo); 350 nM with HBL-1; 20 nM in the experiment on OCI-LY3 cells (Homo sapiens, OCI-LY3, ABC-DLBCL, 72 hours incubation, CellTiter Glo); 10 nM in the experiment on OCI-LY10; 20 nM in the experiment on DOHH-2; 280 nM with CCRF-CEM (Homo sapiens, CCRF-CEM, T-cell acute lymphoblastic leukemia, 72 hours incubation, CellTiter Glo). Also, the IC50 in the experiment on TMD8* (wt btk) worked out at 10 nM; in the experiment on Pfeiffer it was 870 nM; in the experiment with H929 (Homo sapiens, NCI-H929, H929, Multiple myeloma, 72 hours incubation, CellTiter Glo), 50 nM. For the same compound, the “anti-proliferative activity (in words)” value is on record as “potent anti-proliferative activity” in the experiment on CUTLL-1 (CUTLL-1 (T-cell acute lymphoblastic leukemia)); “potent anti-proliferative activity” in the experiment with OCI-LY3 cells (OCI-LY3 (ABC-DLBCL), activating mutation in CARD11); “potent anti-proliferative activity” in the experiment on CCRF-CEM (CCRF-CEM (T-cell acute lymphoblastic leukemia)); “potent anti-proliferative activity” in the experiment on H929 (H929 (multiple myeloma)).
